The conditions of data set [1]: cynomolgus monkey, in vivo, po. On the procedure: Male cynomolgus monkey received a single oral administration of a high dose of inecalcitol (2 mg/kg) in the same volume (5 ml/kg) for each excipient. Blood samples were drawn at the time of administration (To) and 15, 30, 45, 60, 90 minutes, 3, 6, 9 and 24 hours later. Plasma aliquots were prepared on heparinized tubes and unchanged inecalcitol was specifically assayed by HPLC/MS/MS method.

The conditions of data set [2]: rats; cited from earlier work.
The conditions of data set [3]: in vivo; cited from earlier work.
For data set [4] the following is noted: humans, previously determined; cited from earlier work.
The conditions of data set [5]: human volunteers, cited from earlier work.
A short description of data set [6]: Maximal tolerated dose in humans. It is filed as in vivo, human. Particulars: oral.
The conditions of data set [7]: in vivo. The source says:
Inecalcitol is a synthetic derivative of calcitriol, the natural active metabolite of vitamin D3.

For data set [8] the following is noted: in vivo; cited from earlier work. This is another data set of the same source.

The values below come from patent US9314474B2, “Formulations of 14-epi-analogues of vitamin D” (HYBRIGENICS, SA, priority 2010, dated 2016).

Like-named read-outs stand apart in the source and are kept apart here.

As to Sunflower oil, the “absorption of inecalcitol compared with MCT (in words)” value in data set [1] is “better absorbed”. For the same compound, in data set [1] (2 mg/kg), the “AUC0-24 h (%)” value came to 132%, the “Cmax (−fold)” value stood at 3.0 fold and the time of peak concentration (Tmax) is 1.5 h.
In the case of `C=C1/C(=C\C=C2/CCC[C@]3(C)[C@@H]([C@H](C)/C=C/C=C/C(O)(CC)CC)CC[C@@H]23)C[C@@H](O)C[C@@H]1O` [seocalcitol], in data set [2], the “bioavailability, LCT- versus MCT-based formulations” value was “no difference was observed”. Also, the “bioavailability of complex system versus simple solutions in MCT or LCT” value in data set [3] is “without any improvement in bioavailability”.
For the compound `C=C1/C(=C\C=C2/CCC[C@]3(C)[C@@H]([C@H](C)CCCC(C)(C)O)CC[C@@H]23)C[C@@H](O)C[C@@H]1O` [calcitriol, 1,25-dihydroxy-cholecalciferol], in data set [4], the maximal tolerated dose was 45 μg once a week.
Consider `C=C1CC[C@H](O)C/C1=C/C=C1\CCC[C@]2(C)[C@@H]([C@H](C)CCCC(C)C)CC[C@@H]12` [cholecalciferol], for which the “bioavailability from arachis oil capsules versus MCT capsules” value in data set [5] (fasting state) is recorded as “about twice higher”; in data set [5] (given with a standard meal) it was “no difference was observed”.
With elocalcitol, in data set [4], the maximal tolerated dose was 150 μg per day.
For `C[C@H](CC#CC(C)(C)O)[C@H]1CC[C@@H]2/C(=C/C=C3C[C@@H](O)C[C@H](O)C3)CCC[C@@]21C` [inecalcitol, 19-nor-9,10-seco-14βH-cholesta-5(Z),7(E)-dien-23-ino-1α,3β,25-triol-23-yne], in data set [6], the maximal tolerated dose is 4 mg per day. The calcemic activity entry in data set [7] was “very low calcemic activity”. Moreover, in data set [8], the “calcemic effects compared with calcitriol” value is “markedly lower calcemic effects”.
